In PMC5833756, “A novel ruthenium complex with xanthoxylin induces S-phase arrest and causes ERK1/2-mediated apoptosis in HepG2 cells through a p53-independent pathway” (Cell Death & Disease, 2018):
Read-outs that look alike come from different tables or passages of the source.

Legend:
HCT116 = format: cell-based, human; settings: HCT116 (human colon carcinoma), 72 h
SCC-15 = format: cell-based, human; settings: SCC-15 (human oral squamous cell carcinoma), 72 h
SCC-4 = format: cell-based, human; settings: SCC-4 (human oral squamous cell carcinoma), 72 h
calf thymus DNA = test: DNA intercalation assay (ethidium bromide displacement); format: binding; settings: 20 μM, cell-free, 15 min
Experimental: DNA intercalation was assessed by examining the ability of the complex to displace ethidium bromide from ctDNA (Sigma-Aldrich)[36]. […] After a 15 min of incubation at room temperature, fluorescence was measured using the excitation and emission wavelengths of 320 nm and 600 nm, respectively, using the Spectramax Microplate Reader (Molecular Devices).

[1] = tested on: multicellular spheroids formed from HepG2 cells; test: 3D multicellular spheroid culture, alamar blue; format: cell-based, human; settings: HepG2 3D spheroids, 72 h
Experimental: HepG2 cells were cultivated in 3D multicellular spheroids. Briefly, 100 μL of cell solution (0.5 × 10^6 cells/mL) was added to a 96-well plate with a cell-repellent surface (Greiner Bio-One, Kremsmünster, Austria) and cultured in complete medium plus 3% Matrigel (BD Biosciences, San Jose, CA, USA). Spheroids with stable structures formed after three days. Then, the spheroids were exposed to a range of drug concentrations for 72 h. The negative control received the vehicle that was used for diluting the complex tested. In the end of the experiment, morphological changes were examined by light microscopy (Olympus BX41, Tokyo, Japan) using Image-Pro software (Media Cybernetics, Inc. Silver Spring, USA), and cell viability was quantified by alamar blue assay as described above.

ACP-02 = format: cell-based, human
BAD KO SV40 MEF = format: cell-based, mouse; settings: 72 h
HaCAT = format: cell-based; settings: HaCAT (human keratinocyte, non-cancer), 72 h
K-562 = format: cell-based, human; settings: K-562 (human chronic myelogenous leukemia), 72 h
HSC-3 = format: cell-based, human; settings: HSC-3 (human oral squamous cell carcinoma), 72 h
HepG2 = format: cell-based, human; settings: HepG2 (human hepatocellular carcinoma), monolayer, 72 h
[2] = for Initial body weight: before treatment; for Final body weight / Survival / Differential leukocytes: Eosinophils / Differential leukocytes: Lymphocytes / Differential leukocytes: Monocytes / Differential leukocytes: Neutrophils / Erythrocytes / Total leukocytes: i.p. 21 days; for Differential leukocytes: Eosinophils / Differential leukocytes: Lymphocytes / Differential leukocytes: Monocytes / Differential leukocytes: Neutrophils / Erythrocytes / Total leukocytes: peripheral blood
Experimental: HepG2 cells (1 × 10^7 cells per 500 µL) were implanted subcutaneously into the left front armpit of the mice. […] The treatments were initiated one day after the tumor cell injection. The animals were treated intraperitoneally (200 µL per animal) once daily for 21 consecutive days. On the 22nd day, the animals were anesthetized, and peripheral blood samples were collected from the brachial artery. Animals were euthanized by anesthetic overdose, and tumors were excised and weighed.
To assess the toxicological effects, mice were weighed at the beginning and at the end of the experiment. […] Hematological analysis was performed using light microscopy. Livers, kidneys, lungs and hearts were removed, weighed and examined for any signs of gross lesions, color changes and/or hemorrhages. After gross macroscopic examination, the tumors, livers, kidneys, lungs and hearts were fixed in 4% formalin buffer and embedded in paraffin. Tissue sections were stained with hematoxylin and eosin chromogens, and a pathologist performed the analysis under a light microscope.

AGP-01 = AGP-01 (human ascitic gastric adenocarcinoma), 72 h
ACP-03 = format: cell-based, human
WT SV40 MEF = format: cell-based, mouse; settings: 72 h
PBMC = format: cell-based; settings: PBMC (human peripheral blood mononuclear cells, non-cancer), 72 h
HepG2 cells [3] = format: cell-based, human
Experimental: Briefly, the cells were harvested in a permeabilization solution containing 0.1% Triton X-100, 2 µg/mL PI, 0.1% sodium citrate and 100 µg/mL RNAse (all from Sigma-Aldrich) and incubated in the dark for 15 min at room temperature. Finally, cell fluorescence was measured by flow cytometry with a BD LSRFortessa cytometer using BD FACSDiva Software (BD Biosciences) and FlowJo Software 10 (FlowJo Lcc; Ashland, OR, USA). Ten thousand events were evaluated per experiment, and cellular debris was omitted from the analysis.

HepG2 cells [4] = test: Trypan blue exclusion assay; format: cell-based, human
B16-F10 = format: cell-based, mouse; settings: B16-F10 (murine melanoma), 72 h
SCC-25 = format: cell-based, human; settings: SCC-25 (human oral squamous cell carcinoma), 72 h
SCC-9 = format: cell-based, human; settings: SCC-9 (human oral squamous cell carcinoma), 72 h
[5] = DOX 0.3 mg/kg, 5-FU 10 mg/kg, RCX 2.5 mg/kg
[6] = HepG2, 12 h, DOX 2 µM, OXA 10 µM, RCX 12 µM
[7] = HepG2, 24 h, DOX 2 µM, OXA 10 µM, RCX 12 µM
[8] = HepG2, 48 h, DOX 2 µM, OXA 10 µM, RCX 12 µM
[9] = HepG2, 72 h, DOX 2 µM, OXA 10 µM, RCX 12 µM
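For Final body weight in this document: mice bearing subcutaneous HepG2 xenografts, given intraperitoneal doses once daily for 21 days, weighed at start and end, blood leukocytes counted by light microscopy on day 22.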
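For Initial body weight in this document: mice bearing subcutaneous HepG2 xenografts, given intraperitoneal doses once daily for 21 days, weighed at start and end, blood leukocytes counted by light microscopy on day 22.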
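For liver histopathological characteristics in this document: mice bearing subcutaneous HepG2 xenografts, given intraperitoneal doses once daily for 21 days, weighed at start and end, blood leukocytes counted by light microscopy on day 22.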
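For lung histopathological characteristics in this document: mice bearing subcutaneous HepG2 xenografts, given intraperitoneal doses once daily for 21 days, weighed at start and end, blood leukocytes counted by light microscopy on day 22.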

COc1cc([O-])c(C(C)=O)c(OC)c1.F[P-](F)(F)(F)(F)F.[Ru+2].c1cnc2c(c1)ccc1cccnc12.c1cnc2c(c1)ccc1cccnc12 [RCX, cis-[Ru(phen)2(xant)](PF6)]
IC50 (HCT116): 1.6 µM
IC50 (SCC-15): 6.8 µM
IC50 (SCC-4): 5.3 µM
displacement of ethidium bromide from ctDNA (fluorescence) (calf thymus DNA): decreased the ethidium bromide fluorescence
IC50 [1]: 8 µM
selectivity index (SI) (ACP-02): 0.3
IC50 (ACP-02; ACP-02 (human gastric adenocarcinoma), 72 h): 18.3 µM
IC50 (BAD KO SV40 MEF): 4.1 µM
IC50 (HaCAT): 6.1 µM
IC50 (K-562): 6.1 µM
IC50 (HSC-3): 7.7 µM
IC50 (HepG2): 13.5 µM
lung histopathological characteristics ([2]; atelectasis, hemorrhage, inflammation, congestion, doxorubicin 0.3 mg/kg, RCX both doses, 21 days): more pronounced in the doxorubicin and RCX (both doses) groups than in the other groups
Initial body weight ([2]; DOX 0.3 mg/kg, 5-FU 10 mg/kg, RCX 2.5 mg/kg groups): 22.2 ± 0.5 g
Initial body weight ([2]; RCX 5 mg/kg group): 21.1 ± 0.4 g
liver histopathological characteristics ([2]; hydropic degeneration, dilatation, necrosis, inflammation, RCX 2.5 and 5 mg/kg, 21 days): more pronounced in the RCX groups than in the other groups
Final body weight [2, 5]: 20.6 ± 0.4 g
Survival [2, 5]: 14/14
Final body weight ([2]; RCX 5 mg/kg): 17.0 ± 0.4 g
Survival ([2]; RCX 5 mg/kg): 7/14
Differential leukocytes: Eosinophils [2, 5]: 1.0%
Differential leukocytes: Lymphocytes [2, 5]: 49.3%
Differential leukocytes: Monocytes [2, 5]: 1.0%
Differential leukocytes: Neutrophils [2, 5]: 48.3%
Erythrocytes [2, 5]: 9.0 ± 0.6 10^6cells/μL
Total leukocytes [2, 5]: 3.1 ± 0.5 10^3cells/μL
Differential leukocytes: Eosinophils ([2]; RCX 5 mg/kg): 1.0%
Differential leukocytes: Lymphocytes ([2]; RCX 5 mg/kg): 49.0%
Differential leukocytes: Monocytes ([2]; RCX 5 mg/kg): 1.0%
Differential leukocytes: Neutrophils ([2]; RCX 5 mg/kg): 49.0%
Erythrocytes ([2]; RCX 5 mg/kg): 8.3 ± 0.3 10^6cells/μL
Total leukocytes ([2]; RCX 5 mg/kg): 2.6 ± 0.2 10^3cells/μL
IC50 (AGP-01): 5.3 µM
selectivity index (SI) (ACP-03): 0.2
IC50 (ACP-03; ACP-03 (human gastric adenocarcinoma), 72 h): 26 µM
IC50 (WT SV40 MEF): 3.9 µM
IC50 (PBMC): 4.6 µM
DNA content G0/G1 (HepG2 cells [3]; [6]): 66.4 ± 4.0%
DNA content G2/M (HepG2 cells [3]; [6]): 13.3 ± 1.1%
DNA content S (HepG2 cells [3]; [6]): 18.0 ± 7.4%
DNA content Sub-G0/G1 (HepG2 cells [3]; [6]): 9.6 ± 1.1 %
DNA content G0/G1 (HepG2 cells [3]; HepG2, 12 h, RCX 24 µM): 68.9 ± 2.2%
DNA content G2/M (HepG2 cells [3]; HepG2, 12 h, RCX 24 µM): 13.9 ± 1.6%
DNA content S (HepG2 cells [3]; HepG2, 12 h, RCX 24 µM): 8.6 ± 4.5%
DNA content Sub-G0/G1 (HepG2 cells [3]; HepG2, 12 h, RCX 24 µM): 13.0 ± 2.5 %
DNA content G0/G1 (HepG2 cells [3]; [7]): 38.2 ± 1.2 %
DNA content G2/M (HepG2 cells [3]; [7]): 17.6 ± 0.9%
DNA content S (HepG2 cells [3]; [7]): 22.4 ± 0.7 %
DNA content Sub-G0/G1 (HepG2 cells [3]; [7]): 15.3 ± 0.6 %
DNA content G0/G1 (HepG2 cells [3]; HepG2, 24 h, RCX 24 µM): 29.9 ± 2.7 %
DNA content G2/M (HepG2 cells [3]; HepG2, 24 h, RCX 24 µM): 13.0 ± 1.3%
DNA content S (HepG2 cells [3]; HepG2, 24 h, RCX 24 µM): 13.0 ± 1.6%
DNA content Sub-G0/G1 (HepG2 cells [3]; HepG2, 24 h, RCX 24 µM): 34.7 ± 1.4 %
DNA content G0/G1 (HepG2 cells [3]; [8]): 23.3 ± 2.0 %
DNA content G2/M (HepG2 cells [3]; [8]): 9.0 ± 0.8 %
DNA content S (HepG2 cells [3]; [8]): 11.5 ± 2.7%
DNA content Sub-G0/G1 (HepG2 cells [3]; [8]): 44.1 ± 6.3 %
DNA content G0/G1 (HepG2 cells [3]; HepG2, 48 h, RCX 24 µM): 18.9 ± 3.0 %
DNA content G2/M (HepG2 cells [3]; HepG2, 48 h, RCX 24 µM): 6.5 ± 0.7 %
DNA content S (HepG2 cells [3]; HepG2, 48 h, RCX 24 µM): 10.3 ± 1.3%
DNA content Sub-G0/G1 (HepG2 cells [3]; HepG2, 48 h, RCX 24 µM): 62.6 ± 3.4 %
DNA content G0/G1 (HepG2 cells [3]; [9]): 23.6 ± 1.9 %
DNA content G2/M (HepG2 cells [3]; [9]): 11.1 ± 1.8%
DNA content S (HepG2 cells [3]; [9]): 13.2 ± 0.8%
DNA content Sub-G0/G1 (HepG2 cells [3]; [9]): 42.6 ± 6.8 %
DNA content G0/G1 (HepG2 cells [3]; HepG2, 72 h, RCX 24 µM): 19.7 ± 3.3 %
DNA content G2/M (HepG2 cells [3]; HepG2, 72 h, RCX 24 µM): 6.7 ± 0.7%
DNA content S (HepG2 cells [3]; HepG2, 72 h, RCX 24 µM): 4.9 ± 1.1 %
DNA content Sub-G0/G1 (HepG2 cells [3]; HepG2, 72 h, RCX 24 µM): 68.2 ± 3.7 %
reduction of the number of viable cells (HepG2 cells [4]; HepG2, 12 μM, 24 h): 57.2%
reduction of the number of viable cells (HepG2 cells [4]; HepG2, 12 μM, 48 h): 74.6%
reduction of the number of viable cells (HepG2 cells [4]; HepG2, 12 μM, 72 h): 73.8%
reduction of the number of viable cells (HepG2 cells [4]; HepG2, 24 μM, 24 h): 62.2%
reduction of the number of viable cells (HepG2 cells [4]; HepG2, 24 μM, 48 h): 73.9%
reduction of the number of viable cells (HepG2 cells [4]; HepG2, 24 μM, 72 h): 82.1%
change in the number of viable cells (HepG2 cells [4]; HepG2, 12 and 24 μM, 12 h): No significant decrease in the number of viable cells
IC50 (B16-F10): 12.4 µM
IC50 (SCC-25): 6.5 µM
IC50 (SCC-9): 3.4 µM
